Measurements: patent publication US20190375778A1, “ADENOSINE DERIVATIVES FOR USE IN THE TREATMENT OF CANCER” (NuCana plc, priority 2016, published 2019)

How the values were obtained:
K-562 = assay: ATP ViaLight cytotoxicity assay, K-562; type: cell-based; conditions: Homo sapiens, K562, 72 h
Procedure: (§1) HL-60, CTS, and K-562 are leukaemia cell lines, which were obtained from the American Type Culture Collection (ATCC), Middlesex. HL-60 cell line is of acute promyelocytic leukaemia; CTS cell line is of acute myeloid leukaemia; and K-562 cell line is of chronic myeloid leukaemia.
(§2) HL-60, CTS, and K-562 cell lines were cultured in RPMI-1640 medium (Sigma Aldrich, UK), which was supplemented with 10% Fetal Bovine Serum (FBS) (PAA Laboratories), 1% amphotericin B (5.5 ml) and 1% penicillin/streptomycin (5.5 ml) (PAA Laboratories) and grown in flasks at 37° C. incubator with 5% CO2.
(§3) For inhibitor studies the cell lines were treated in the same way as described above but before treatment with drugs, a number of inhibitors were added: • 1) Nitrobenzylthioinosine (NBTI) (Sigma-Aldrich, St. Louis, Mo.) inhibits hENT1. • 2) A-134974 dihydrochloride hydrate (Sigma-Aldrich, St. Louis, Mo.) inhibits adenosine kinase. • 3) EHNA hydrochloride (Sigma-Aldrich, St. Louis, Mo.) inhibits adenosine deaminase.
ATP ViaLight™ plus assay kit (Lonza, USA: Product No. LT07-121) was used for treating the cells in luminescence compatible 96 well plates (initial concentration of cells was 1×10^4 cells/well) with 8-Cl-A and ProTides, concentrations: 0, 0.1, 0.5, 1, 5 and 10 μM were added to cells, respectively, followed by incubation for 72 hours at 37° C. incubator with 5% CO2. For inhibitor studies, […] concentration of each inhibitor was added before drugs and incubated for 72 hours at 37° C. with 5% CO2.
(§4) After incubation, 50 μl of cell lysis reagent was added to the 96 well plates to release the intracellular ATP, followed by 100 μl of ATP monitoring reagent (AMR). The luminescent values of each well were determined using FLUOstar OPTIMA microplate reader (BMG Labtech) which converted ATP into light by using luciferase enzyme.
(§5) The dose-response curves of cytotoxicity of the drugs was determined using non-linear regression analysis of percentage cell viability versus concentration and EC50 values were obtained. The intracellular assay was conducted in five repeats for each condition. Intracellular assay was determined using paired T test (two-tailed) analysis of 8-ChloroATP/ATP concentration and p values were obtained. Drug stability in human plasma was determined using two-way ANOVA analysis. For all the analysis, Prism Software program (GraphPad Software) was used.

KG1a cell line = assay: Annexin V/propidium iodide cytotoxicity, KG1a unsorted; type: cell-based; conditions: for LD50: Homo sapiens, KG-1a, Annexin V/propidium iodide, 72 hrs; for cytotoxic potency compared in words: KG1a, versus 8-chloroadenosine or other isomers (FIG. 1, FIG. 7)
Procedure: A further comparative analysis of the toxicity of compounds in the KG1a cell line over an extended dose range was carried out, and the relative effect assessed of the compounds on the leukaemic stem cell compartment within the KG1a cell line, across the entire dose range. Thus, experimental tests were performed on certain compounds of the present invention to assess their ability to target cancer stem cells in a leukaemic cell line. The acute myeloid leukaemia (AML) cell line, KG1a, was employed to assess the relative effect of compounds on the stem cell compartment. The KG1a cell line was selected because it manifests a minor stem cell-like compartment with a distinct immunophenotype (Lin^−/CD34^+/CD38^−/CD123^+).
Cells of the KG1a cell line were maintained in RPMI medium (Invitrogen, Paisley, UK) supplemented with 100 units/ml penicillin, 100 μg/ml streptomycin and 20% foetal calf serum. Cells were subsequently aliquoted (10^5 cells/100 μl) into 96-well plates and were incubated at 37° C. in a humidified 5% carbon dioxide atmosphere for 72 hrs in the presence of nucleoside analogues and their respective nucleotide analogues (known as ProTides) at concentrations that were experimentally determined for each series of compounds. In addition, control cultures were carried out to which no drug was added. Cells were subsequently harvested by centrifugation and were analyzed by flow cytometry using the Annexin V assay.
Cultured cells were harvested by centrifugation and then resuspended in 195 μl of calcium-rich buffer. Subsequently, 5 μl of Annexin V (Caltag Medsystems, Botolph Claydon, UK) was added to the cell suspension and cells were incubated in the dark for 10 mins prior to washing. Cells were finally resuspended in 190 μl of calcium-rich buffer together with 10 μl of propidium iodide. Apoptosis was assessed by dual-colour immunofluorescent flow cytometry as described previously. Subsequently LD50 values (the dose required to kill 50% of the cells in a culture) were calculated for each nucleoside analogue and ProTide.
The data obtained in these experiments were evaluated using one way ANOVA. All data was confirmed as Gaussian or a Gaussian approximation using the omnibus K2 test. LD50 values were calculated from the non-linear regression and line of best-fit analysis of the sigmoidal dose-response curves. All statistical analyses were performed using Graphpad Prism 6.0 software (Graphpad Software Inc., San Diego, Calif.).

CTS = assay: ATP ViaLight cytotoxicity assay, CTS; type: cell-based; conditions: 72 h
Procedure: as §1, §2, §3
[…] For inhibitor studies, 10 M concentration of each inhibitor was added before drugs and incubated for 72 hours at 37° C. with 5% CO2.
as §4, §5

MCF7 = assay: MTT cytotoxicity assay, MCF7; type: cell-based; conditions: Homo sapiens, 96 h compound exposure, read-out: absolute IC50, MCF7
Text: (§6) Lovo: cell line derived from a metastatic site in a patient with colon cancer MCF7: human oestrogen sensitive mammary epithelial cell line PC3: human prostate cancer cell line A549: cancerous lung tissue derived cells L1210: lymphoblast cell line derived from a mouse with lymphocytic leukaemia FM3A: mammary carcinoma murine cells CEM: human T-lymphoblasts, derived from the blood of a patient with acute lymphoblastic leukaemia HeLa: epithelial cells from a patient with cervical adenocarcinoma
Anti-tumour evaluation in MCF7, LoVo, A549 and PC3 cell lines was performed by MTT assay. Compounds were prepared as 0.1-100 mM stock solutions dissolved in DMSO and stored at −20° C. Cells were seeded into 96-well microtitre plates at a density of 5×10^3 cells per well and allowed 24 hours to adhere. Decimal compound dilutions were prepared in medium immediately prior to each assay (final concentration 0.1-100 μM). Experimental medium was DMEM+10% FCS (PC3 and Lovo) or RPMI+10% heat inactivated FCS (A549 and MCF7). Following 96 h compound exposure at 37° C., 5% CO2, MTT reagent (Sigma Aldrich) was added to each well (final concentration 0.5 mg/ml). Incubation at 37° C. for 4 h allowed reduction of MTT by viable cells to an insoluble formazan product. MTT was removed and formazan solubilised by addition of 10% Triton X-100 in PBS. Absorbance was read on a Tecan Sunrise spectrophotometer at 540 nm as a measure of cell viability; thus inhibition relative to control was determined (IC50).

FM3A = assay: Cytotoxicity, FM3A; type: cell-based, murine; conditions: Mus musculus, read-out: absolute IC50, FM3A
Text: as §6

[1] = with A-134974 (adenosine kinase inhibitor)

Q: Which results are given for `C[C@H](NP(=O)(OC[C@H]1O[C@@H](n2c(Cl)nc3c(N)ncnc32)C(O)C1O)Oc1cccc2ccccc12)C(=O)OCc1ccccc1` (stereo partly drawn) [Compound D, (2S)-Benzyl 2-(((((2R,3S,4R,5R)-5-(6-amino-8-chloro-9H-purin-9-yl)-3,4-dihydroxy-tetrahydrofuran-2-yl)methoxynaphthalene-1-yloxy)phosphoryl)amino)propanoate]?
A: EC50 (K-562; Control (no inhibitor)): 6.63 µM; EC50 (K-562; [1]): 19.7 µM; EC50 (K-562; with NBTI (hENT1 inhibitor)): 1.73 µM; LD50 (KG1a cell line): 3.8 µM; cytotoxic potency compared in words (KG1a cell line): significantly (P<0.0001) more cytotoxic; EC50 (CTS; Control (no inhibitor)): 2.64 µM; EC50 (CTS; [1]): 10.3 µM; EC50 (CTS; with NBTI (hENT1 inhibitor)): 1.46 µM

Q: Which results are given for `Nc1ncnc2c1nc(Cl)n2[C@@H]1O[C@H](COP(=O)(NCC(=O)OC2CCCCC2)Oc2ccccc2)[C@@H](O)[C@H]1O` (mixture of isomers) [Compound A, Cyclohexyl 2-(((((2R,3S,4R,5R)-5-(6-amino-8-chloro-9H-purin-9-yl)-3,4-dihydroxy-tetrahydrofuran-2-yl)methoxy)(phenoxy)phosphoryl)amino)acetate]?
A: IC50 (MCF7): 15 to 100 µM; IC50 (FM3A): > 100 µM; EC50 (CTS; [1]): 28 µM; EC50 (CTS; with NBTI (hENT1 inhibitor)): 270 µM

Q: For `Nc1ncnc2c1nc(Cl)n2[C@@H]1O[C@H](COP(=O)(NCC(=O)OCc2ccccc2)Oc2ccccc2)[C@@H](O)[C@H]1O` (mixture of isomers) [Compound B, Benzyl 2-(((((2R,3S,4R,5R)-5-(6-amino-8-chloro-9H-purin-9-yl)-3,4-dihydroxytetra-hydrofuran-2-yl)methoxy)(phenoxy)phosphoryl)amino)acetate], which EC50 (K-562; Control (no inhibitor)) is on record?
A: 2.86 µM

Q: And the EC50 (K-562; with NBTI (hENT1 inhibitor))?
A: 12.8 µM

Q: What about the LD50 (KG1a cell line) of the same compound?
A: 7.1 µM

Q: And the IC50 (MCF7)?
A: 15 to 100 µM

Q: What about the IC50 (FM3A) of the same compound?
A: 0.1 to 5 µM

Q: What about the EC50 (CTS; Control (no inhibitor)) of the same compound?
A: 16.3 µM

Q: What about the EC50 (CTS; with NBTI (hENT1 inhibitor)) of the same compound?
A: 63.9 µM

Q: For `Nc1ncnc2c1nc(Cl)n2[C@@H]1O[C@H](COP(=O)(NCC(=O)OCc2ccccc2)NCC(=O)OCc2ccccc2)C(O)C1O` (stereo partly drawn) [Compound AC, 8-Chloroadenosine 5′-O-bis(benzyloxy-glycin-N-yl) phosphate], which “cytotoxic potency compared in words” value (KG1a cell line) is on record?
A: not as cytotoxic as Isomer A of Compound B

Q: Which results are given for `Nc1ncnc2c1nc(Cl)n2[C@@H]1O[C@H](CO)[C@@H](O)[C@H]1O` [8-chloroadenosine, 8-Chloroadenosine, reference compound]?
A: EC50 (K-562; Control (no inhibitor)): 0.64 µM; EC50 (K-562; with NBTI (hENT1 inhibitor)): 4.69 µM; IC50 (MCF7): 0.1 to 5 µM; IC50 (FM3A): 0.1 to 5 µM; EC50 (CTS; Control (no inhibitor)): 0.32 µM; EC50 (CTS; with NBTI (hENT1 inhibitor)): 5.48 µM

Q: `C[C@H](NP(=O)(OC[C@H]1O[C@@H](n2c(Cl)nc3c(N)ncnc32)[C@H](O)[C@@H]1O)Oc1ccccc1)C(=O)OCc1ccccc1` (mixture of isomers) [C, (2S)-Benzyl 2-(((((2R,3S,4R,5R)-5-(6-amino-8-chloro-9H-purin-9-yl)-3,4-dihydroxy-tetrahydrofuran-2-yl)methoxy)(phenoxy)phosphoryl)amino)propanoate] was tested. Which LD50 (KG1a cell line) did it give?
A: 1.6 µM

Q: What about the IC50 (MCF7) of the same compound?
A: 15 to 100 µM

Q: And the IC50 (FM3A)?
A: 15 to 100 µM

Q: Which IC50 (MCF7) does the source give for `CC(C)C[C@H](NP(=O)(OC[C@H]1O[C@@H](n2c(Cl)nc3c(N)ncnc32)C(O)C1O)Oc1ccccc1)C(=O)OCc1ccccc1` (stereo partly drawn) [V, 5′-([(Benzyloxy-L-leucin-N-yl)-phenyl]-phosphatyl) 8-chloroadenosine] here?
A: 0.1 to 5 µM

Q: And the IC50 (FM3A)?
A: 15 to 100 µM

Q: `CCCCCOC(=O)[C@H](C)NP(=O)(OC[C@H]1O[C@@H](n2c(Cl)nc3c(N)ncnc32)C(O)C1O)Oc1cccc2ccccc12` (stereo partly drawn) [Compound E, (2S)-Pentyl 2-(((((2R,3S,4R,5R)-5-(6-amino-8-chloro-9H-purin-9-yl)-3,4-dihydroxy-tetrahydrofuran-2-yl)methoxnaphthalene-1-yloxy)phosphoryl)amino)propanoate] was tested. Which LD50 (KG1a cell line) did it give?
A: 20 µM

Q: And the “cytotoxic potency compared in words” value (KG1a cell line)?
A: less potent than 8-chloroadenosine
